{"source": "ChEMBL document CHEMBL5375981", "about": "“Enhanced Tumor Targeting and Penetration of Proteolysis-Targeting Chimeras through iRGD Peptide Conjugation: A Strategy for Precise Protein Degradation in Breast Cancer” (J Med Chem, 2023)", "key": {"[1]": {"assay": "Solubility in distilled water measured for 30 mins by ultraviolet spectrophotometry analysis", "type": "physicochemical"}, "[2]": {"assay": "Drug release in PBS assessed as increase in (2S)-1-((R)-2-(tert-butyl)-17-((S)-4-(4-chlorophenyl)-2,3,9-trimethyl-6H-thieno[3,2-f][1,2,4]triazolo[4,3-a][1,4]diazepin-6-yl)-4,16-dioxo-6,9,12-trioxa-3,15-diazaheptadecanoyl)-4-hydroxy-N-((S)-1-(4-(4-methylthiazol-5-yl)phenyl)ethyl)pyrrolidine-2-carboxamide concentration at 50 uM in presence of GSH by LC-MS analysis", "type": "ADME", "conditions": "buffer, TDE = time-dependent effect"}, "[3]": {"molecular_target": "Bromodomain-containing protein 4 (Homo sapiens) (UniProt O60885)", "assay": "Induction of BRD4 degradation in human MDA-MB-231 cells harboring high integrin alphaVbeta3 expression at 1 uM incubated for 12 hrs by immunofluorescence staining based confocal microscopic analysis", "type": "cell-based"}, "[4]": {"molecular_target": "Bromodomain-containing protein 4 (Homo sapiens) (UniProt O60885)", "assay": "Induction of BRD4 degradation in human MDA-MB-231 cells harboring high integrin alphaVbeta3 expression assessed as reduction in BRD4 levels at 500 nM pretreated with integrin receptor antagonist cilengitide for 2 hrs followed by compound addition and measured after 12 hrs by immunofluorescence staining based confocal microscopic analysis", "type": "cell-based"}, "[5]": {"assay": "Toxicity in BALB/C mouse xenografted with human MDA-MB-231 cells assessed as weight loss at 5 to 8 uM, iv administered for 21 days and measured every 3 days", "type": "organism-based", "conditions": "in vivo, 504 h, dose 5-8 µM, time 21 day"}, "[6]": {"assay": "Toxicity in BALB/C mouse xenografted with human MDA-MB-231 cells assessed as kidney damage at 5 to 8 uM, iv administered every other day for 21 days and measured 37 days post treatment by H and E staining based assay", "type": "organism-based", "conditions": "in vivo, 1392 h, dose 5-8 µM, time 58 day"}, "[7]": {"test_system": "Mus musculus", "assay": "In vivo induction of BRD4 degradation in BALB/C mouse xenografted with human MDA-MB-231 cells assessed as reduction in BRD4 level by measuring reduction in green fluorescence at 5 to 8 uM, iv administered every other day and measured after 21 days by immunofluorescence analysis", "type": "functional, organism-based", "conditions": "dose 5-8 µM, time 21.0 day"}, "[8]": {"test_system": "MDA-MB-231", "assay": "Antitumor activity against human MDA-MB-231 cells xenografted in BALB/C nude mouse assessed as disruption of tumor blood vessel wall at 5 uM, iv administered every other day and measured after 21 days by H and E staining based assay", "type": "functional, organism-based", "conditions": "time 21.0 day"}, "[9]": {"organism": "Homo sapiens", "assay": "Antitumor activity against patient-derived Breast cancer organoid assessed as inhibition of cell growth at 0.5 to 1 uM incubated for 3 days by CCK-8 assay", "type": "functional, tissue-based", "conditions": "dose 0.5-1 µM, time 3.0 day"}}, "note": "Calls of active or inactive are those of the source. The calls are words filed in the database; no cut-off is given here.", "data": [{"compound": "Cc1ncsc1-c1ccc([C@H](C)NC(=O)[C@@H]2C[C@@H](OC(=O)OCCSSCCOC(=O)CCC(=O)NCCCC[C@@H]3NC(=O)[C@H](CC(=O)O)NC(=O)CNC(=O)[C@H](CCCNC(=N)N)NC(=O)[C@@H](N)CSSC[C@@H](C(=O)O)NC(=O)[C@H](CC(=O)O)NC(=O)[C@@H]4CCCN4C(=O)CNC3=O)CN2C(=O)[C@@H](NC(=O)COCCOCCOCCNC(=O)C[C@@H]2N=C(c3ccc(Cl)cc3)c3c(sc(C)c3C)-n3c(C)nnc32)C(C)(C)C)cc1", "values": [{"measurement": "solubility at 0.5 h", "setting": "[1]", "value": "> 10", "unit": "mM"}, {"measurement": "Drug metabolism", "setting": "[2]", "value": "Tde"}, {"measurement": "Activity", "setting": "[3]", "value": "Active"}, {"measurement": "Activity", "setting": "[4]", "value": "inactive"}, {"measurement": "Activity", "setting": "[5]", "value": "Non-Toxic"}, {"measurement": "Activity", "setting": "[6]", "value": "Non-Toxic"}, {"measurement": "Activity", "setting": "[7]", "value": "Active"}, {"measurement": "Activity", "setting": "[8]", "value": "Active"}, {"measurement": "Activity", "setting": "[9]", "value": "Active"}]}]}
